From ChEMBL document CHEMBL3627636, “Novel bivalent inhibitors with sub-nanomolar affinities towards human glyoxalase I” (Bioorg Med Chem Lett, 2015) come the findings set out here.

In general, Ki refers to a measure of affinity in units of concentration, obtained from inhibition or displacement. A word on the solubility: it is the dissolved amount per volume that the medium holds. A higher solubility goes with much dissolved substance.

Structures are written as SMILES. In brackets after ≈: the same amount, converted by molar mass.

Data set [1] concerns the target Hydroxyacylglutathione hydrolase, mitochondrial (Bos taurus, UniProt Q3B7M2). The experiment in a line: Inhibition of bovine liver glyoxalase 2.
In data set [2] the target is T1, Lactoylglutathione lyase (Homo sapiens, UniProt Q04760). The experiment in a line: Inhibition of 6-His tagged recombinant human glyoxalase 1 transfected in Escherichia coli BL21 (DE3) assessed as S-D-lactoylglutathione formation by spectrophotometer.
T1 sequence (Q04760 whole entry): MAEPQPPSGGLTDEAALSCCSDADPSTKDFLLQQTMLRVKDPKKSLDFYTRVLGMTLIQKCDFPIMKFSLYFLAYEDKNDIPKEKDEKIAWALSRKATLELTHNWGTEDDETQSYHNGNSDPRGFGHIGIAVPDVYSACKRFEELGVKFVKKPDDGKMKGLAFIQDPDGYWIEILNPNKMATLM
Data set [3] can be described thus: Solubility of compound. It counts as physicochemical.
Data set [4] is described as follows: Inhibition of yeast glyoxalase 1. The arrangement: species or system Saccharomyces cerevisiae.
The target in data set [5] is T1, Lactoylglutathione lyase. The data set can be described thus: Inhibition of human glyoxalase 1.

Turning to `O=C(O)CNC(=O)C(CSC(=O)N(O)c1ccc(Br)cc1)NC(=O)CCC(NCCC(=O)OCCOCCOCCOCCNC(=O)CCCCCCC(=O)NCCCOCCOCCOCCCNC(=O)CCCCCCC(=O)NCCOCCOCCOCCOC(=O)CCNC(CCC(=O)NC(CSC(=O)N(O)c1ccc(Br)cc1)C(=O)NCC(=O)O)C(=O)O)C(=O)O` (stereo unspecified), the Ki was 138 nM in data set [1], 1 nM in data set [2] and 6900 nM in data set [4]. The concentration in solution in data set [3] (solubility) was 26 mg/mL (≈ 12.8 mM).

Take `O=C(O)CNC(=O)C(CSC(=O)N(O)c1ccc(Br)cc1)NC(=O)CCC(NCCC(=O)OCCNC(=O)CCNC(=O)CC(=O)NCCNC(=O)CC(=O)NCCC(=O)NCCOC(=O)CCNC(CCC(=O)NC(CSC(=O)N(O)c1ccc(Br)cc1)C(=O)NCC(=O)O)C(=O)O)C(=O)O` (stereo unspecified): the Ki came to 81 nM in data set [1], 0.3 nM in data set [2] and 3700 nM in data set [4]. Moreover, the concentration in solution in data set [3] (solubility) came to 32 mg/mL (≈ 19.9 mM).

`NCCC(=O)NC(CCC(=O)NC(CSC(=O)N(O)c1ccc(Cl)cc1)C(=O)NCC(=O)O)C(=O)O` (stereo unspecified) showed a Ki in data set [5] of 330 nM.

In turn, `CC(=O)CNC(CCC(=O)NC(CSC(=O)N(O)c1ccc(Cl)cc1)C(=O)NCC(=O)O)C(=O)O` (stereo unspecified) had a Ki in data set [5] of 130 nM.

Regarding `CCOC(=O)CCNC(CCC(=O)NC(CSC(=O)N(O)c1ccc(Cl)cc1)C(=O)NCC(=O)O)C(=O)O` (stereo unspecified), the affinity in data set [5] corresponds to a Ki of 46 nM.
